Source: patent publication US20250221966A1, “RXFP1 AGONISTS” (BRISTOL-MYERS SQUIBB COMPANY, priority 2021, published 2025)

Target: T1, human RXFP1 (Homo sapiens, UniProt Q9HBX9)
T1 construct: expressed in transfected cells
T1 sequence (Q9HBX9 1-757): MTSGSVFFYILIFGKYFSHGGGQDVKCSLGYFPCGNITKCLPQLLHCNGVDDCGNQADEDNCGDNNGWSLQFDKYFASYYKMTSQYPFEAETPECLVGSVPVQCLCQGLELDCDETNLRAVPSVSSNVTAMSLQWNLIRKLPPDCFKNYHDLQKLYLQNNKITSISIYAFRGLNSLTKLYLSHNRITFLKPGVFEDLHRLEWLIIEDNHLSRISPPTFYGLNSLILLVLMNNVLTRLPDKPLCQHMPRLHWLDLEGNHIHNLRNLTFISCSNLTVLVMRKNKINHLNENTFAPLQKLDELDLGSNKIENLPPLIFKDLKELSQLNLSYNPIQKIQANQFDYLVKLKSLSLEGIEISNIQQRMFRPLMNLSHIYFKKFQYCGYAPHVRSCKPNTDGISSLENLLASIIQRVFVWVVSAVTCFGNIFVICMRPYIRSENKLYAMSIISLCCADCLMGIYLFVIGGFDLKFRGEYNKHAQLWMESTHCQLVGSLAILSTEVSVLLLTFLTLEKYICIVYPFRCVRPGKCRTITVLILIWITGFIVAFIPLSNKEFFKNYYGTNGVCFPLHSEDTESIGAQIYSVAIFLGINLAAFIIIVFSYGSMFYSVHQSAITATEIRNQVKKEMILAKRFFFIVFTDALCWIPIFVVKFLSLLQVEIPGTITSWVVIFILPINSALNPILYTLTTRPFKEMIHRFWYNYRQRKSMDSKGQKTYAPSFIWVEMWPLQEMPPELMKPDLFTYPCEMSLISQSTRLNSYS
Test: RXFP1 cAMP assay (hRXFP1 HEK293 cAMP assay, HTRF)
Type: cell-based
Conditions: HEK293 cells stably expressing human RXFP1, 30 min at room temperature, read-out: cAMP hRXFP1 HEK293 Assay EC50
Outline: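 HEK293 cells stably expressing human RXFP1 were suspended in HBSS (Ca/Mg) with 20 mM HEPES, 0.05% BSA and 0.5 mM IBMX, then treated with compounds (0.010 nM–50 μM, 2% DMSO final) for 30 min at room temperature. Intracellular cAMP was measured by HTRF, and potency was derived from 4-parameter logistic fits.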

Structure (SMILES) | EC50 [nM]
COc1cc(F)c(F)cc1C(=O)N[C@@H]1C2CCC(/C2=C/c2ccc3ccccc3c2)[C@@H]1C(=O)Nc1ccc(F)c(C(F)(F)F)c1 (some centres unmarked) [compound 18] | 630
COc1cc(F)c(F)cc1C(=O)N[C@@H]1C2CCC(C2=C(C)C)[C@]1(F)C(=O)Nc1ccc(F)c(C(F)(F)F)c1 (some centres unmarked) [Example 51] | 790
COc1ccc(-c2cc(C(=O)O)ccc2F)cc1C(=O)N[C@@H]1C2CCC(/C2=C/C2CC2)[C@@H]1C(=O)Nc1cccc(-c2csnn2)c1 (some centres unmarked) [compound 271] | 664
COc1ccc([C@@H]2CO[C@H]3[C@@H]2OC[C@H]3O)cc1C(=O)N[C@H]1[C@@H](C(=O)Nc2ccc(F)c(C(F)(F)F)c2)[C@H]2CC[C@@H]1/C2=C\C1CC1 [compound 620] | 163
CCO/N=C1\C2CCC1[C@H](C(=O)Nc1ccc(F)c(C(F)(F)F)c1)[C@@H]2NC(=O)c1cc(-c2cc(C(=O)O)ccc2F)ccc1OC (some centres unmarked) [Example 130] | 440
COc1ccc(C2CCCN2)cc1C(=O)N[C@@H]1C2CCC(C2=CC2CC2)[C@@H]1C(=O)Nc1ccc(F)c(C(F)(F)F)c1 (some centres unmarked) [compound 703] | 1190
COc1cc(F)c(F)cc1C(=O)N[C@@H]1C2CCC(/C2=C/C(=O)OCc2ccccc2)[C@@H]1C(=O)Nc1ccc(F)c(C(F)(F)F)c1 (some centres unmarked) [compound 9] | 310
COc1ccccc1CNC(=O)[C@@H]1[C@H](NC(=O)c2cc(C3=NOC4COCC34)ccc2OC)[C@@H]2CC[C@H]1/C2=C/C1CC1 (some centres unmarked) [compound 681] | 606
CCOC(=O)Cn1cc(-c2ccc(OC)c(C(=O)N[C@@H]3C4CCC(/C4=C/c4ccccc4)[C@@H]3C(=O)Nc3ccc(F)c(C(F)(F)F)c3)c2)cn1 (some centres unmarked) [compound 339] | 67
COc1ccc(N2CCCC(CO)C2)cc1C(=O)N[C@@H]1C2CCC(/C2=C/C2CC2)[C@@H]1C(=O)Nc1ccc(F)c(C(F)(F)F)c1 (single isomer, unassigned) [compound 704] | 1300
COc1ccc(Br)cc1C(=O)N[C@@H]1C2CCC(/C2=C/C(F)(F)F)[C@@H]1C(=O)Nc1ccc(F)c(C(F)(F)F)c1 (some centres unmarked) [compound 292] | 1860
COc1cc(F)c(F)cc1C(=O)NC1C2CCC(C2=Cc2ncco2)C1C(=O)Nc1ccc(F)c(C(F)(F)F)c1 (centres unmarked) [Example 145] | 1300
COc1ccc(/C=C2\C3CCC2[C@H](C(=O)Nc2ccc(F)c(C(F)(F)F)c2)[C@@H]3NC(=O)c2cc(F)c(F)cc2OC)cc1 (some centres unmarked) [compound 20] | 940
COc1ccc(C2=NOC3C(O)CC(O)C23)cc1C(=O)N[C@H]1[C@@H](C(=O)Nc2ccc(F)c(C(F)(F)F)c2)[C@H]2CC[C@@H]1/C2=C\C1CC1 (single isomer, unassigned) [compound 680] | 582
COc1ccc(C2=NOC3COCC23)cc1C(=O)N[C@H]1[C@@H](C(=O)NCc2ncccc2C(F)(F)F)[C@H]2CC[C@@H]1/C2=C\C1CC1 (some centres unmarked) [compound 690] | 712
COc1ccc(-c2ccc(C(=O)O)cc2)cc1C(=O)N[C@H]1[C@@H](C(=O)Nc2ccc(F)c(C(F)(F)F)c2)[C@H]2CC[C@@H]1/C2=C/c1ccccc1 [compound 94] | 400
COc1ccc(C2=NOC(C(C)O)C2)cc1C(=O)N[C@H]1[C@@H](C(=O)Nc2ccc(F)c(C(F)(F)F)c2)[C@H]2CC[C@@H]1/C2=C\C1CC1 (single isomer, unassigned) [compound 595] | 92.7

These reach a lower EC50. Values come first.

EC50 [nM] | Structure (SMILES)
64 | COc1ccc(-c2cc(C(O)C(=O)O)ccc2F)cc1C(=O)N[C@H]1[C@@H](C(=O)Nc2ccc(F)c(C(F)(F)F)c2)[C@H]2CC[C@@H]1/C2=C\CC1CC(F)(F)C1 (stereo partly drawn) [Example 352, 2-(3′-(((1R,2R,3S,4R,Z)-7-(2-(3,3-difluorocyclobutyl)ethylidene)-3-((4-fluoro-3-(trifluoromethyl)phenyl)carbamoyl)bicyclo[2.2.1]heptan-2-yl)carbamoyl)-6-fluoro-4′-methoxy-[1,1′-biphenyl]-3-yl)-2-hydroxyacetic acid]
62 | COc1ccc(-c2cnn(CC(=O)O)c2)cc1C(=O)N[C@@H]1C2CCC(/C2=C/c2ccccc2)[C@@H]1C(=O)Nc1ccc(F)c(C(F)(F)F)c1 (some centres unmarked) [compound 340]
49 | COc1cc(F)c(F)cc1C(=O)N[C@@H]1C2CCC(/C2=C/c2ccccc2)[C@@H]1C(=O)Nc1cccc(S(=O)(=O)C(F)(F)F)c1 (some centres unmarked) [Example 127]
34.9 | COc1ccc(C2=NOC3CC(CO)CC23)cc1C(=O)N[C@H]1[C@@H](C(=O)Nc2ccc(F)c(C(F)(F)F)c2)[C@H]2CC[C@@H]1C2CC(F)(F)F (some centres unmarked) [compound 550]
21 | COc1ccc(C2=NOC3C[C@H](O)CC23)cc1C(=O)N[C@@H]1C2CCC(/C2=C/C2CC2)[C@@H]1C(=O)Nc1ccc(F)c(C(F)(F)F)c1 (some centres unmarked) [compound 407]
16 | COc1ccc(-c2ccc(C(=O)O)cc2)cc1C(=O)N[C@@H]1C2CCC(/C2=C/C2CC2)[C@@H]1C(=O)Nc1ccc(F)c(C(F)(F)F)c1 (some centres unmarked) [compound 167]
8 | COc1ccc(C2=NOC(C(=O)O)C2)cc1C(=O)N[C@@H]1C2CCC(/C2=C/C2CC2)[C@@H]1C(=O)Nc1ccc(F)c(C(F)(F)F)c1 (single isomer, unassigned) [Example 385]
7 | COc1ccc(-c2cc(OC(F)(F)F)ccc2F)cc1C(=O)N[C@@H]1C2CCC(/C2=C/C2CC2)[C@@H]1C(=O)Nc1ccc(F)c(C(F)(F)F)c1 (some centres unmarked) [compound 285]
4.7 | COc1ccc(C2=NO[C@H]3CC(CO)C[C@@H]23)cc1C(=O)N[C@H]1[C@@H](C(=O)Nc2ccc(F)c(C(F)(F)F)c2)[C@H]2CC[C@@H]1/C2=C\CC(C)(C)C (some centres unmarked) [compound 841]
4.5 | COc1ccc(-c2cccc(C3=NOC4CC(O)CC34)c2)cc1C(=O)N[C@H]1[C@@H](C(=O)Nc2ccc(F)c(C(F)(F)F)c2)[C@H]2CC[C@@H]1/C2=C\C1CC1 (some centres unmarked) [compound 901]
3.7 | COc1ccc(C2=NO[C@H]3C[C@H](CO)CN23)cc1C(=O)N[C@H]1[C@@H](C(=O)Nc2ccc(F)c(C(F)(F)F)c2)[C@H]2CC[C@@H]1/C2=C\C(C)C [compound 833]
3.3 | COc1ccc(C2=NOC3COCC23)cc1C(=O)N[C@H]1[C@@H](C(=O)N[C@H](C)C2(C)CCC2)[C@H]2CC[C@@H]1/C2=C\C1CC1 (some centres unmarked) [compound 769]
3 | COc1ccc(C2=NOC3COCC23)cc1C(=O)N[C@H]1[C@@H](C(=O)Nc2ccc(F)c(C(F)(F)F)c2)[C@H]2CC[C@@H]1/C2=C\c1cnoc1 (some centres unmarked) [compound 802]
2.9 | COc1ccc(C2=NO[C@H]3CC(CO)C[C@@H]23)cc1C(=O)N[C@H]1[C@@H](C(=O)Nc2ccc(F)c(C(F)(F)F)c2)[C@H]2CC[C@@H]1/C2=C\CCC1CC1 (some centres unmarked) [compound 824]
2.8 | COc1ccc(C2=NOC3CC(C(=O)O)CC23)cc1C(=O)N[C@H]1[C@@H](C(=O)Nc2ccc(F)c(C(F)(F)F)c2)[C@H]2CC[C@@H]1/C2=C\C1CC1 (some centres unmarked) [compound 851]
2.5 | COc1ccc(C2=NO[C@@H]3C[C@H](C(F)(F)F)CN23)cc1C(=O)N[C@H]1[C@@H](C(=O)Nc2ccc(F)c(C(F)(F)F)c2)[C@H]2CC[C@@H]1/C2=C\C1CC1 [compound 847]
2 | COc1ccc(C2=NOC3CN(CCO)CC23)cc1C(=O)N[C@H]1[C@@H](C(=O)Nc2ccc(F)c(C(F)(F)F)c2)[C@H]2CC[C@@H]1/C2=C\C1CC1 (single isomer, unassigned) [compound 455]
1.9 | COc1ccc(C2=NOC3CC(CO)CC23)cc1C(=O)N[C@H]1[C@@H](C(=O)Nc2ccc(F)c(C(F)(F)F)c2)[C@H]2CC[C@@H]1/C2=C\C(C)C (some centres unmarked) [compound 454]
1.7 | COc1ccc(-c2cc(C(NC(=O)C3CCOCC3)C(=O)O)ccc2F)cc1C(=O)N[C@H]1[C@@H](C(=O)Nc2ccc(F)c(C(F)(F)F)c2)[C@H]2CC[C@@H]1/C2=C\C1CC(F)(F)C1 (some centres unmarked) [compound 943]
1.4 | COc1ccc(-c2cc([C@H](OC(=O)NC3CC3)C(F)(F)F)ccc2F)cc1C(=O)N[C@H]1[C@@H](C(=O)Nc2ccc(F)c(C(F)(F)F)c2)[C@H]2CC[C@@H]1/C2=C\CCC(F)(F)F [compound 928]
1 | CNC(=O)OC(c1ccc(F)c(-c2ccc(OC)c(C(=O)N[C@@H]3C4CCC(/C4=C/C4CC4)[C@@H]3C(=O)Nc3ccc(F)c(C(F)(F)F)c3)c2)c1)C(F)(F)F (some centres unmarked) [compound 212]
1 | COc1ccc(-c2cc(C(OC(=O)N(C)C3CCC3)C(F)(F)F)ccc2F)cc1C(=O)N[C@@H]1C2CCC(/C2=C/C2CC2)[C@@H]1C(=O)Nc1ccc(F)c(C(F)(F)F)c1 (some centres unmarked) [compound 209]
0.8 | COc1c(F)cc(C2=NOC3COCC23)cc1C(=O)N[C@H]1[C@@H](C(=O)Nc2ccc(F)c(C(F)(F)F)c2)[C@H]2CC[C@@H]1/C2=C\C1CC1 (some centres unmarked) [compound 791]
0.1 | COc1ccc(-c2cc([C@H](NC(=O)C3CCOCC3)C(F)(F)F)ccc2F)cc1C(=O)N[C@H]1[C@@H](C(=O)Nc2ccc(F)c(C(F)(F)F)c2)[C@H]2CC[C@@H]1/C2=C\C1CCCC1 [compound 955]
